From patent publication US20200138772A1, “STABILIZED FORMULATIONS OF CANNABINOID COMPOSITIONS” (priority 2018, published 2020)
Read-outs that look alike come from different tables or passages of the source.

What was measured:
[1] = Randomized, double blind, parallel bioavailability study (plasma CBD, THC and metabolites by LCMS); conditions: human, oral
Protocol: Dosage was standardized to 10 mg of THC. […] Secondary outcome was a subjective evaluation of drug effects assessed using modified Drug Effects Questionnaire (DEQ-5) for the control product and the experimental product. Relevant experimental descriptions of several study aspects are detailed below.
Administration: A pre-dose plasma (via IV catheter) and a urine sample is collected from the participant before the administration of the emulsions/formulations. […] The bowl in which the product is mixed is rinsed with 100 ml water and the participant consumes the complete amount. After the product mixture is consumed, the participant is provided with an 8 oz glass of water that is then consumed in its entirety within 1-2 minutes.
The samples are also analyzed for HbAlc, CBC, electrolytes (Na, K, Cl, Ca), creatinine, estimated glomerular filtration rate (eGFR), aspartate aminotransferase (AST), alanine aminotransferase (ALT), and bilirubin. Urine samples are also obtained at the following time ranges: 1-4 hrs, 4-8 hrs and 8-12 hrs.
Plasma and urine samples are collected at KGK Science.

[2] = cited from earlier work; for time to achieve peak plasma concentration (tmax): different doses; for half-life / systemic bioavailability: humans

SMILES | Tmax [1] [h] | time to achieve peak plasma concentration (tmax) [2] [h] | half-life ([2]; intravenous injection) [h] | half-life ([2]; oral administration) [h] | half-life ([2]; smoking) [h] | systemic bioavailability ([2]; oral) | maximal plasma concentrations observed as late as ([2]; orally taken, in some cases) [h] | systemic bioavailability ([2]; smoked)
C=C(C)[C@@H]1CCC(C)=C[C@H]1c1c(O)cc(CCCCC)cc1O [CBD, (−)-Cannabidiol (CBD)] | 0.167 to 1.42 | 1.5 to 4 | 18 to 33 | 48 to 120 | 27 to 35 |  |  | 
CCCCCc1cc(O)c2c(c1)OC(C)(C)[C@@H]1CCC(C)=C[C@@H]21 [Δ^9-THC, Δ^9-Tetrahydrocannabinol (Δ^9-THC)] | 0.167 to 1.5 | 1 to 2 |  |  |  | 4-12% | ≤ 6 | 10-27%
